According to article PMC7496286, “The Selectivity of Fosfosal for STAT5b over STAT5a is Mediated by Arg566 in the Linker Domain” (Chembiochem, 2020):
Substitutions are numbered along the chain they refer to.

What was measured:
[1] = target: T1, STAT5b Met644Lys (Homo sapiens, UniProt P51692, M644K); experiment: FP-based competitive binding assay, STAT5b Met644Lys
T1 construct: His; made in house
T1 sequence (P51692 1-787 M644K): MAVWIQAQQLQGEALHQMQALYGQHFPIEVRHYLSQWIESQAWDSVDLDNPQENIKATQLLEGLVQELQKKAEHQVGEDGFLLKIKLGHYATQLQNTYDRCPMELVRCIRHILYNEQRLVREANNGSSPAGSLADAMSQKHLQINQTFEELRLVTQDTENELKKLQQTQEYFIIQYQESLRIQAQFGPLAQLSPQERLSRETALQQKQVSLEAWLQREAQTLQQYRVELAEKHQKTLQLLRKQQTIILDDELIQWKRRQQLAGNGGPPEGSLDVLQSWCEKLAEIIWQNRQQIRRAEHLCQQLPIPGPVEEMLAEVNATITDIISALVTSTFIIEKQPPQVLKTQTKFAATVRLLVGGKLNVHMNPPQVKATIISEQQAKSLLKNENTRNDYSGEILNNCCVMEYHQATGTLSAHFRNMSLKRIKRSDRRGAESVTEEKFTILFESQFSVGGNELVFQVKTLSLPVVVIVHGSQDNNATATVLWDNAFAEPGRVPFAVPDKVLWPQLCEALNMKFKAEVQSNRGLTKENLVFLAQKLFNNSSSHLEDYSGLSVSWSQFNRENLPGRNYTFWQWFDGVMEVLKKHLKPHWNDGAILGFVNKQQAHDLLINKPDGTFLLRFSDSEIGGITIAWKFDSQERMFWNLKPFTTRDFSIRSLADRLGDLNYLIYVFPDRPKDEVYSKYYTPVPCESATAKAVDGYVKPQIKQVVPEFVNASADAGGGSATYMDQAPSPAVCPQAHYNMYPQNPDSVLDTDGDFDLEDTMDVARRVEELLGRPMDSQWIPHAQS
Method: (§1) Fluorescence polarization assays
(§2) The ability of test compounds to displace 5-carboxyfluorescein-GY(PO3H2)LVLDKW (final concentration: 10 nM) from the SH2 domain of STAT5a/b proteins was analyzed. Proteins […]
(§3) was applied in dilution series comprising the following concentrations: 0.024 – 200 µM […]
(§4) and 0.146 – 600 µM (STAT5b Arg566Glu), respectively. The assays were performed in buffer containing 10 mM Tris, 50 mM NaCl, 1 mM DTT, 1 mM EDTA and 0.1% (v/v) NP-40. Fosfosal was dissolved in DMSO. STAT5a/b proteins and fosfosal were incubated at room temperature for 1 h before adding peptide. Samples were transferred to 384-well microtiter plates and fluorescence polarization was read after a further 1 h incubation time. All measurements were performed in triplicate (n=3), except for STAT5b (n=6) and STAT5a Trp566Arg (n=4). Percent binding was calculated based on a logarithmic curve fit using OriginPro 8G software. IC50 values were converted to Ki values using the published equation.[4] […]
(§5) [4] Z. Nikolovska-Coleska, R. Wang, X. Fang, H. Pan, Y. Tomita, P. Li, P. P. Roller, K.
(§6) Krajewski, N. G. Saito, J. A. Stuckey, S. Wang, Anal. Biochem. 2004, 332, 261-273.

[2] = target: T2, STAT5b Arg566Glu (Homo sapiens, UniProt P51692, R566E); experiment: FP-based competitive binding assay, STAT5b Arg566Glu
T2 construct: His; made in house
T2 sequence (P51692 1-787 R566E): T1 sequence (P51692 1-787 M644K) with R566E, K644M
Method: as §1, §2, §3, §4

[3] = target: T3, STAT5b-7M (Arg566Trp/Gln636Pro/Met639Asn/Phe640Leu/Met644Lys/Asn664Ser/Tyr679Phe) (Homo sapiens, UniProt P51692, F640L/M639N/M644K/N664S/Q636P/R566W/Y679F); experiment: FP-based competitive binding assay, STAT5b-7M
T3 construct: His; made in house
T3 sequence (P51692 1-787 R566W/Q636P/M639N/F640L/M644K/N664S/Y679F): T1 sequence (P51692 1-787 M644K) with R566W, Q636P, M639N, F640L, N664S, Y679F
Method: as §1, §2, §3, §4, §5, §6

IC50 ([1]; STAT5b Met644Lys) [µM]	Ki ([1]; STAT5b Met644Lys, Ki calculated from IC50) [µM]	% inhibition at 600 μM ([2]; STAT5b Arg566Glu, up to 600 μM)	IC50 ([3]; STAT5b-7M) [µM]	Ki ([3]; STAT5b-7M, Ki calculated from IC50) [µM]	Compound	Kd [1] [µM]	Kd [2] [µM]	Kd [3] [µM]
					CC(C)C[C@H](NC(=O)[C@H](Cc1ccc(OP(=O)(O)O)cc1)NC(=O)CNC(=O)c1ccc2c(c1)C(=O)OC21c2ccc(O)cc2Oc2cc(O)ccc21)C(=O)N[C@H](C(=O)N[C@@H](CC(C)C)C(=O)N[C@@H](CC(=O)O)C(=O)N[C@@H](CCCCN)C(=O)N[C@@H](Cc1c[nH]c2ccccc12)C(=O)O)C(C)C [5-carboxyfluorescein-GY(PO3H2)LVLDKW]	0.026	2	0.246
36.6 ± 2	17.2 ± 0.9	no inhibition	379 ± 7	189 ± 3	O=C(O)c1ccccc1OP(=O)(O)O [fosfosal, O‐phosphorylated salicylic acid]			
